ChEMBL document CHEMBL2363022, “Malaria Box Schistosomiasis Screening Data” (2013)

Tests used:
Assay type in all cases: functional
Schistosoma mansoni [1] = system: Schistosoma mansoni; set-up: scale not given here
Schistosoma mansoni [2] = system: Schistosoma mansoni; set-up: scale not given here; remark: listed apart in the source
Schistosoma mansoni [3] = test: MMV: Toxicity @ 5 uM to 4-5 Schistosoma mansoni adult males after 48 h on a scale of 0 (none) - 4 (most). Includes short descriptors of effects as judged visually (PMID:19597541). Only those Malaria box 'drug-like' cpds yielding the most severe phenotypes vs. somules were tested. Caffrey group UCSF.
Schistosoma mansoni [4] = test: (§1) MMV: Motility assay. Percent change (relative to DMSO controls) @ 5 uM of movement of 4-5 Schistosoma mansoni adult males after 72 h as measured by the Consensus Voting Luminance Difference algorithm available on WormAssay (PMID:22303493). Occasional incongruence ocurrs between the motility scores and the visually adjudicated 'toxicity scores'. In these cases the 'toxicity score' should be prioritized. Only those Malaria box 'Drug-like' cpds yielding the most severe phenotypes vs. somules were tested. Caffrey group UCSF.
Schistosoma mansoni [5] = test: as §1, with “48” for “72”
Schistosoma mansoni [6] = test: as §1, with “24” for “72”
Schistosoma mansoni [7] = test: MMV: Toxicity @ 5 uM to 4-5 Schistosoma mansoni adult males after 72 h on a scale of 0 (none) - 4 (most). Includes short descriptors of effects as judged visually (PMID:19597541). Only those Malaria box 'drug-like' cpds yielding the most severe phenotypes vs. somules were tested. Caffrey group UCSF.
Schistosoma mansoni [8] = test: MMV: Toxicity @ 5 uM to 4-5 Schistosoma mansoni adult males after 24 h on a scale of 0 (none) - 4 (most). Includes short descriptors of effects as judged visually (PMID:19597541). Only those Malaria box 'drug-like' cpds yielding the most severe phenotypes vs. somules were tested. Caffrey group UCSF.
Schistosoma mansoni [9] = system: Schistosoma mansoni; set-up: scale not given here; remark: listed apart in the source

Row | Structure (SMILES) | Toxicity (Schistosoma mansoni [1]) | Toxicity (Schistosoma mansoni [2]) | Toxicity (Schistosoma mansoni [3]) | Motility (Schistosoma mansoni [4]) | Motility (Schistosoma mansoni [5]) | Motility (Schistosoma mansoni [6]) | Toxicity (Schistosoma mansoni [7]) | Toxicity (Schistosoma mansoni [8]) | Toxicity (Schistosoma mansoni [9])
1 | COc1ccc2nc(C)cc(Nc3ccc(Cl)cc3)c2c1 | 4 | 3 | 2 | Slow, on sides, dark | 87.4 | 75.2 | 3 | 2 | 4
2 | CCn1nc(-c2ccc(C(=O)OC)cc2)nc2c(=O)n(C)c(=O)nc1-2 | 4 | 4 | 0 | 78.5 | 97 | 99.1 | 0 | 0 | 4
3 | COc1ccc(CCN2CCC(CN(C)Cc3cnn(-c4ccccc4)c3)CC2)cc1 | 1 | 2 | 0 | 70.2 | 114.8 | 33.8 | 0 | 0 | 1
4 | O=C(Nc1cccc(C(F)(F)F)c1)c1cc(Cl)ccc1O | 4 | 4 | 4 | 0.7 | 0.4 | 0.5 | 4 | 4 | 4
5 | COc1cccc(O)c1CN1CCC2(CCCN(Cc3ccc(F)cc3)C2)C1 (stereo not drawn) | 2 | 3 | 0 | 92.4 | 133.2 | 168.1 | 0 | 0 | 3
6 | Br.CCN(CC)S(=O)(=O)c1ccc(-c2csc(Nc3ccc(C)c(C)c3)n2)cc1 | 2 | 2 | 2 | 2.5 | 3.9 | 21.8 | 4 | 2 | 2
7 | Cc1cccc(-n2ncc3c(O)nc(-n4nc(C)cc4NC(=O)c4cc5ccccc5o4)nc32)c1 | 1 | 1 | 3 | Slow, on sides, dark, tegument damage | 1 | 6 | 4 | 0 | 4
8 | Cl.OC(CNCc1ccccc1)Cn1c2ccccc2c2ccccc21 (stereo not drawn) | 4 | 4 | 0 | No effect | 49.4 | 38.1 | 0 | 0 | 4
9 | CN(C)CCNc1cc(-c2ccccc2)nc2ccccc12 | 2 | 2 | 0 | No effect | 68.3 | 151.9 | 0 | 1 | 1
10 | O=C(Nc1ccc(F)c(Cl)c1)Nc1ccc(Cl)c(Cl)c1 | 3 | 3 | 4 | 2.6 | 3.2 | 3.2 | 4 | 2 | 4
11 | O=C(NC(c1ccccc1)c1ccc2cccnc2c1O)c1ccccc1 (stereo not drawn) | 3 | 0 | 3 | Slow, on sides, dark, tegument damage | 16.1 | 74 | 4 | 0 | 4
12 | OC(CNC1CCCC1)Cn1c2ccccc2c2ccccc21 (stereo not drawn) | 4 | 1 | 0 | No effect | 83 | No effect | 0 | 0 | 4
